Results as given in patent US10342766B2, “6-shogaol derivatives and activities thereof” (North Carolina Agricultural and Technical State University, priority 2017, dated 2019).
“And” between values parts separate entries of the source, which are not always exact repeats. Identical values can stand only once.

Columns and labels:
Nrf2 = Nrf2 reporter activity by Tg(gstp1:GFP) fluorescence in transgenic zebrafish embryos; assay type: in vivo; conditions: 24-hour treatment from 1 dpf to 2 dpf; for Ratio/CTL, Tg(gstp1:GFP) fluorescence signal: 5 μM, olfactory epithelia, relative to vehicle (DMSO = 1.00)
Method: Zebrafish AB transgenic strains Tg(gstp1:GFP) were maintained in a Pentair Aquatic Ecosystem (Apopka, Fla., United States of America) fish housing unit with 14 h light/10 h dark cycle (see Tsujita, T., Li, L., Nakajima, H., Iwamoto, N., Nakajima-Takagi, Y., Ohashi, K., Kawakami, K., Kumagai, Y., Freeman, B. A., Yamamoto, M., and Kobayashi, M. (2011) “Nitro-fatty acids and cyclopentenone prostaglandins share strategies to activate the Keap1-Nrf2 system: a study using green fluorescent protein transgenic zebrafish.” Genes Cells 16, 46-57). The fish embryos were maintained at 28.5° C. in 0.3× Danieau's solution (19.3 mM NaCl, 0.23 mM KCl, 0.13 mM MgSO4, 0.2 mM Ca(NO3)2, 1.7 mM HEPES, pH 7.0) containing 30 μg/ml phenylthiourea (PTU) to inhibit pigmentation. Tg(gstp1:GFP) cross with AB wild-type strain fluorescence embryos were used for the experiment. Zebrafish embryos were washed, dechorionated and anaesthetized before observations, and fluorescence imaging for analysis.
Transgenic zebrafish embryos at 1 day-post-fertilization (dpf) were dechorionated and placed in Petri dishes containing different chemicals diluted in 0.3× Danieau's solution containing PTU. The chemical stock was dissolved in DMSO at 5 mM concentration.
An Olympus MVX10 Fluorescence Macroscope (Olympus, Center Valley, Pa., United States of America) equipped with a Hamamatsu C9300-221 high-speed digital CCD camera (Hamamatsu City, Japan) was used for fluorescence microscopy. Tg(gstp1:GFP) fluorescent embryos were anaesthetized in tricaine and imaged at 2 dpf. MetaMorph Basic software (Olympus, Center Valley, Pa., United States of America) was used for image acquisition and analysis.
Quantification of Nrf2 Reporter Activity by Tg(gstp1:
GFP) Fluoresence in Zebrafish Model. The fluorescence intensity of the olfactory neural epithelia was quantitated using MetaMorph Basic software. In brief, GFP expression in the olfactory regions of Tg(gstp1:GFP) embryos treated with various chemicals was measured after 24-hour treatment from 1 dpf to 2 dpf. The GFP induction was detectable by fluorescence signal at the area of the olfactory epithelia in the anterior of the head region, the intensity was measured using an area of a circle of 60 pixel diameter of the fluorescence olfactory epithelia subtracted by a background non-fluorescence area next to the zebrafish embryo. Both the left and right olfactory epithelia were measured to give an average fluorescence value. The values are an average of measurements from at least 10 embryos.

[1] = Formation of cysteine conjugates in mice (urine, LC/MS); assay type: in vivo, mouse; conditions: oral gavage 200 mg/kg, urine collected in 24 h
Method: LC/MS analysis was carried out with a Thermo-Finnigan Spectra System, which consisted of an Accela high speed MS pump, an Accela refrigerated autosampler, and an LCQ Fleet ion trap mass detector (Thermo Electron, San Jose, Calif., United States of America) incorporated with an electrospray ionization (ESI) interface. A Gemini-NX C18 column (150 mm×4.6 mm i.d., 5 μm; Phenomenex, Torrance, Calif., United States of America) was used for separation at a flow rate of 0.3 mL/min. The column was eluted with 100% A (5% aqueous methanol with 0.2% formic acid) for 1 min, followed by linear increases in B (95% aqueous methanol with 0.2% formic acid) to 55% from 1 to 4 min, to 85% from 4 to 25 min, then to 100% B from 25 to 30 min, and then with 100% B from 30 to 35 min. The column was then re-equilibrated with 100% A for 5 min. The LC eluent was introduced into the ESI interface. The positive ion polarity mode was set for the ESI source with the voltage on the ESI interface maintained at approximately 4.6 kV. Nitrogen gas was used as the sheath gas and auxiliary gas. […] The mass range was measured from 100 to 800 m/z. […]
Enzymatic deconjugation of mouse urine was performed as described previously with slight modifications. […] The resulting suspension was centrifuged at 17,000 g for 5 min, and 10 μL of supernatant was analyzed directly by LC/MS.

[2] = Biotransformation in zebrafish embryos (cysteine conjugates, LC/MS); assay type: in vivo; conditions: 5 μM in incubation medium, 8 hpf to 24 hpf
Method: Fifty zebrafish embryos at the 8 hour-post-fertilization (hpf) stage were incubated at 28.5° C. in 0.3× Danieau's solution (19.3 mM NaCl, 0.23 mM KCl, 0.13 mM MgSO4, 0.2 mM Ca(NO3)2, 1.7 mM HEPES, pH 7.0) with or without 5 μM 18 and 25-27, respectively. At 24 hpf, embryos were dechorionated manually and the chorions were carefully removed one by one from the culture medium. The zebrafish embryos were harvested and kept at −80° C. till analyzed by LC/MS.
200 μL Sodium acetate buffer solution (pH 5.0) was added to 50 zebrafish embryos. Samples were homogenized for 90 s by an Omni Bead Ruptor Homogenizer (Kennesaw, Ga., United States of America). 10 μL 10% ascorbic acid and 300 μL sodium acetate buffer were added to the homogenates. The mixture was incubated in the presence of β-glucuronidase (250 U) and sulfatase (3 U) at 37° C. for 45 min, and then 600 μL MeOH with 1% acetic acid was added. The resulting mixture was vortexed for 30 s and then centrifuged at 17000 g for 10 min. The supernatant was removed and evaporated under a gentle stream of nitrogen. The residue was reconstituted in 150 μL 90% MeOH with 0.2% acetic acid (AA), and 10 μL was analyzed directly by LC/MS.
LC/MS analysis was carried out with a Thermo-Finnigan Spectra System, which consisted of an Accela high speed MS pump, an Accela refrigerated autosampler, and an LCQ Fleet ion trap mass detector (Thermo Electron, San Jose, Calif., United States of America) incorporated with an electrospray ionization (ESI) interface. A Gemini-NX C18 column (150 mm×4.6 mm i.d., 5 μm; Phenomenex, Torrance, Calif., United States of America) was used for separation at a flow rate of 0.3 mL/min. The column was eluted with 100% A (5% aqueous methanol with 0.2% formic acid) for 1 min, followed by linear increases in B (95% aqueous methanol with 0.2% formic acid) to 55% from 1 to 4 min, to 85% from 4 to 25 min, then to 100% B from 25 to 30 min, and then with 100% B from 30 to 35 min. The column was then re-equilibrated with 100% A for 5 min. The LC eluent was introduced into the ESI interface. The positive ion polarity mode was set for the ESI source with the voltage on the ESI interface maintained at approximately 4.6 kV. Nitrogen gas was used as the sheath gas and auxiliary gas. Optimized source parameters, including capillary temperature (260° C.), sheath gas flow rate (31 arbitrary units), auxiliary gas flow rate (16 units), tube lens (34 V), and capillary voltage 9 V, were tuned using authentic samples. The collision-induced dissociation (CID) was conducted with an isolation width 2 Da and normalized collision energy of 35 for MS^2. The mass range was measured from 100 to 800 m/z. Data acquisition was performed with Xcalibur version 2.0 (Thermo Electron, San Jose, Calif., United States of America).

| Compound | Ratio/CTL, Tg(gstp1:GFP) fluorescence signal (Nrf2) | also measured |
| --- | --- | --- |
| CCCCC/C=C/C(=O)CCc1ccc(O)c(OC)c1 [Compound 1, [6]-shogaol, reference compound] | 2.40 and 2.40 ± 0.54 | Ratio/CTL, Tg(gstp1:GFP) fluorescence signal (Nrf2; listed as 6S): 2.40 |
| CCCCCCC/C=C/C(=O)CCc1ccc(O)c(OC)c1 [Compound 2, reference compound] | 1.67 ± 0.55 | Ratio/CTL, Tg(gstp1:GFP) fluorescence signal (Nrf2; listed as 8S): 1.67 |
| CCCCCCCCC/C=C/C(=O)CCc1ccc(O)c(OC)c1 [Compound 3, reference compound] | 1.53 ± 0.53 | Ratio/CTL, Tg(gstp1:GFP) fluorescence signal (Nrf2; listed as 10S): 1.53 |
| CCCCCC=CC(O)CCc1ccc(O)c(OC)c1 (centres unmarked) [Compound 4] | 1.13 and 1.13 ± 0.21 |  |
| CCCCCCCC(=O)CCc1ccc(O)c(OC)c1 [Compound 5] | 1.27 and 1.27 ± 0.29 |  |
| CCCCCC(CC(=O)CCc1ccc(O)c(OC)c1)SCC(N)C(=O)O (centres unmarked) [Compound 6] | 1.06 ± 0.20 |  |
| CCCCCC(CC(=O)CCc1ccc(O)c(OC)c1)SCC(NC(C)=O)C(=O)O (centres unmarked) [Compound 7] | 1.04 ± 0.05 |  |
| CCCCCC(CC(=O)CCc1ccc(O)c(OC)c1)SC (centres unmarked) [Compound 8] | 1.16 ± 0.47 |  |
| CCCCCC(CC(=O)CCc1ccc(O)c(OC)c1)OC (centres unmarked) [Compound 10] | 0.96 ± 0.24 |  |
| CCCCC[C@H](O)CC(=O)CCc1ccc(O)c(OC)c1 [Compound 11, [6]-gingerol, reference compound] | 1.87 and 1.87 ± 0.51 |  |
| CCCCCCC[C@H](O)CC(=O)CCc1ccc(O)c(OC)c1 [Compound 12, reference compound] | 1.65 and 1.65 ± 0.29 |  |
| CCCCCCCCC[C@H](O)CC(=O)CCc1ccc(O)c(OC)c1 [Compound 13, reference compound] | 1.29 and 1.29 ± 0.40 |  |
| CCCCCCCC(O)CCc1ccc(O)c(OC)c1 (centres unmarked) [Compound 14] | 0.96 ± 0.21 | Nrf2 activation in Tg(gstp1:GFP) zebrafish embryos, in words (Nrf2): no effect at all |
| CCCCCC(CC(O)CCc1ccc(O)c(OC)c1)SCC(N)C(=O)O (centres unmarked) [Compound 15] | 1.08 ± 0.65 |  |
| CCCCCC(CC(O)CCc1ccc(O)c(OC)c1)SCC(NC(C)=O)C(=O)O (centres unmarked) [Compound 16] | 0.78 ± 0.12 |  |
| CCCCCC(CC(O)CCc1ccc(O)c(OC)c1)SC (centres unmarked) [Compound 17] | 0.72 ± 0.14 |  |
| CCCCC/C=C/C(=O)/C=C/c1ccc(O)c(OC)c1 [Compound 18] | 5.67 and 5.67 ± 0.59 | Cysteine conjugates found in mouse urine [1]: conjugate 35 was predominantly present; Cysteine conjugates found in zebrafish embryos [2]: conjugate 35 was predominantly present |
| CCCCCCCC(=O)/C=C/c1ccc(O)c(OC)c1 [Compound 19] | 3.29 and 3.29 ± 0.35 |  |
| CCCCC/C=C/C(=O)/C=C/c1cc(O)c(O)c(OC)c1 [Compound 20] | 1.26 and 1.26 ± 0.14 |  |
| CCCCC/C=C/C(=O)/C=C/c1cc(OC)c(O)c(C(F)(F)F)c1 [Compound 21] | 2.18 and 2.18 ± 0.53 |  |
| CCCCC/C=C/C(=O)/C=C/c1cccc(C(F)(F)F)c1 [Compound 22] | 1.28 and 1.28 ± 0.10 |  |
| CCCCC/C=C/C(=O)/C=C/c1cccc(C(F)(F)F)c1F [Compound 23] | 1.63 and 1.63 ± 0.17 |  |
| CCCCC/C=C/C(=O)/C=C/c1ccccc1C(F)(F)F [Compound 24] | 1.55 and 1.55 ± 0.67 |  |
| CCCCCCCC(=O)CCc1ccc(O)c(O)c1 [Compound 25] | 4.32 and 4.32 ± 0.50 | Cysteine conjugates found in zebrafish embryos [2]: conjugates 37 and 37b were exclusively identified |
| C[S+]([O-])CCCCN=C=S (centres unmarked) [SFN, sulforaphane, reference compound] | 2.03 and 2.03 ± 0.49 |  |
